The values below come from patent US5817648A, “Vitamin D3 analogues having an unsaturated side chain” (Duphar International Research B.V., priority 1995, dated 1998).

Test [1] concerns human leukemic cell line HL-60. As to the kind of experiment: Cell differentiation in HL-60 assay (NBT reduction). Format: cell-based. The following applies: compared with calcitriol. As to the method:
The vitamin D compounds to be investigated are dissolved in ethanol in concentrations ranging from 10^-12 to 10^-6 M and tested for their capacity to induce cell differentiation in a HL-60 assay. In this assay, biochemical examination of the human leukemic cell line HL-60 is performed, in order to establish whether cell differentiation has taken place.
Differentiation is expressed as the maturation parameter nitroblue tetrazolium (NBT) reduction. After culturing with the known calcitriol or with the vitamin D compounds to be investigated, the percentage of cells containing black formazan deposits is determined. An increase in the percentage of NBT reducing cells indicates an increase in cell differentiation.
Proliferation and vitality of the cell cultures are established by counting the number of cells and by the trypan blue exclusion method.

For test [2], the target named is T1, calf thymus intracellular vitamin D receptor (VDR) (Bos taurus, UniProt Q28037).
T1 construct: calf thymus intracellular vitamin D receptor (VDR); from tissue; host or cells: calf thymus
T1 sequence (Q28037 1-426): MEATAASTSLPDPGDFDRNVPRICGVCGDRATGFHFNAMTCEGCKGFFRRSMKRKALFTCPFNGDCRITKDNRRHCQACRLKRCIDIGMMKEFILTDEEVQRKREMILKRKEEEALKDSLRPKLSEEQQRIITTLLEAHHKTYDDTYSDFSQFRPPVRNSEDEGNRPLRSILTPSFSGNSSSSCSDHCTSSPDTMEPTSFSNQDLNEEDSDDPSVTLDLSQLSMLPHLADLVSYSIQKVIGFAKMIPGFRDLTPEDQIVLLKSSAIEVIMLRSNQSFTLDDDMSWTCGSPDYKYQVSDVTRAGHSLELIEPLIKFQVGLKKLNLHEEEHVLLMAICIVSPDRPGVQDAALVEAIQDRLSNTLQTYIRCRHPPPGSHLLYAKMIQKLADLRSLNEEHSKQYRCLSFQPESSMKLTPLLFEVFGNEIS
As to the kind of experiment: Affinity to intracellular vitamin D receptor (displacement of 3H-1α,25-DHCC). Format: binding. The source says: In this assay, ^3 H-1α,25-dihydroxycholecalciferol (^3 H-1α,25-DHCC), which is specifically bound to the VDR, is replaced by the tested compounds. […] 9 times that of calcitriol. A high affinity towards the VDR is indicative for biologically active compounds.

Test [3] concerns Vitamin D binding protein (DBP). Nature of the test: Affinity to vitamin D binding protein (competition with 3H-1α,25-DHCC). The following applies: DBP purified from total human serum. As to the method: Vitamin D binding protein (DBP) is the specific carrier for vitamin D and its metabolites in blood. The biological activity of vitamin D compounds depends on their binding to DBP, because strong binding to DBP will reduce the intracellular access to the VDR. Binding to the DBP may also influence the half-life of the vitamin D derivatives in circulation. Weak binders are rapidly metabolized, which is a favourable aspect in topical application.
In the assay, DBP is incubated with ^3 H-1α,25-DHCC and 1α,25-DHCC or with the vitamin D compounds to be investigated. To this purpose, the vitamin compounds are dissolved in ethanol in concentrations ranging from 10^-11 to […]. The percentage bound/unbound ^3 H-1α,25-DHCC is then calculated. DBP is purified from total human serum. Both 24,24-dihomo-.increment.(24-24a)-calcitriol and 24,24-dihomo-.increment.(24a-24b)-calcitriol are much weaker binders to the DBP than calcitriol (2% and 3.5% respectively).

Molecules are shown by their SMILES.

Turning to `C=C1/C(=C\C=C2/CCC[C@]3(C)[C@@H]([C@H](C)CC/C=C/CC(C)(C)O)CC[C@@H]23)C[C@@H](O)C[C@@H]1O` [24,24-dihomo-.increment.(24-24a)calcitriol], the “activity in inducing differentiation of HL-60 cells, times less active than calcitriol” value in test [1] stood at 4 times less active. In addition, in test [2] (relative to calcitriol), the “affinity towards the VDR relative to calcitriol” value was ≤ 1%. The “binding to the DBP relative to calcitriol” value in test [3] was determined as 2%.
Turning to `C=C1/C(=C\C=C2/CCC[C@]3(C)[C@@H]([C@H](C)CCCC(C)(C)O)CC[C@@H]23)C[C@@H](O)C[C@@H]1O` [Calcitriol, calcitriol], the “activity in inducing differentiation and maturation of the HL-60 cells (in words)” value in test [1] was “equally active”.
In the case of `C=C1/C(=C\C=C2/CCC[C@]3(C)[C@@H]([C@H](C)CCC/C=C/C(C)(C)O)CC[C@@H]23)C[C@@H](O)C[C@@H]1O` [Compound 16, (5Z,7E)-(1S,3R)-9,10-Seco-24a,24b-dihomo-(24aE)-5,7,10(19),24a-cholestatetraen-1,3,25-triol], the “activity in inducing differentiation and maturation of the HL-60 cells (in words)” value in test [1] is “equally active”. Besides, the “affinity towards the VDR, times that of calcitriol” value in test [2] is 9 times that of calcitriol. For the same compound, the “binding to the DBP relative to calcitriol” value in test [3] is listed as 3.5%.
